From ChEMBL document CHEMBL5518206, “Hit-to-Lead Identification and Validation of a Triaromatic Pleuromutilin Antibiotic Candidate” (J Med Chem, 2024)
The source made the active and inactive calls. No cut-off for these calls is given here.

Tests used:
[1] = Volume of distribution in pig plasma at 3 mg/kg, iv measured upto 240 mins by LC-MS/MS analysis; type: ADME, organism-based, Sus scrofa
[2] = Cmax in pig urine at 3 mg/kg, iv measured upto 240 mins by LC-MS/MS analysis; type: ADME, organism-based, Sus scrofa
[3] = Tmax in pig urine at 10 mg/kg, po measured upto 240 mins by LC-MS/MS analysis; type: ADME, organism-based, Sus scrofa
[4] = Half life in NMRI female mouse at 20 mg/kg, sc by HPLC analysis; type: ADME, organism-based; settings: in vivo
[5] = Tmax in NMRI female mouse at 20 mg/kg, sc by HPLC analysis; type: ADME, organism-based; settings: in vivo
[6] = Elimination rate constant in pig plasma at 3 mg/kg, iv measured upto 240 mins by LC-MS/MS analysis; type: ADME, organism-based, Sus scrofa
[7] = Plasma Concentration in pig at 3 mg/kg, iv measured upto 240 mins by LC-MS/MS analysis; type: ADME, organism-based, Sus scrofa
[8] = AUC (0 to infinity) in NMRI female mouse at 60 mg/kg, sc by HPLC analysis; type: ADME, organism-based; settings: in vivo
[9] = AUC (0 to infinity) in pig urine at 10 mg/kg, po measured upto 240 mins by LC-MS/MS analysis; type: ADME, organism-based, Sus scrofa; settings: in vivo, 4 h
[10] = Half life in NMRI female mouse at 30 mg/kg, iv by HPLC analysis; type: ADME, organism-based; settings: in vivo
[11] = Clearance in NMRI female mouse at 60 mg/kg, sc by HPLC analysis; type: ADME, organism-based; settings: in vivo
[12] = Elimination rate constant in NMRI female mouse at 20 mg/kg, sc by HPLC analysis; type: ADME, organism-based; settings: in vivo
[13] = Volume of distribution in NMRI female mouse at 20 mg/kg, sc by HPLC analysis; type: ADME, organism-based; settings: in vivo
[14] = Half life in pig plasma at 3 mg/kg, iv measured upto 240 mins by LC-MS/MS analysis; type: ADME, organism-based, Sus scrofa
[15] = Elimination rate constant in pig urine at 3 mg/kg, iv measured upto 240 mins by LC-MS/MS analysis; type: ADME, organism-based, Sus scrofa
[16] = Elimination rate constant in NMRI female mouse at 60 mg/kg, sc by HPLC analysis; type: ADME, organism-based; settings: in vivo
[17] = Tmax in pig plasma at 3 mg/kg, iv measured upto 240 mins by LC-MS/MS analysis; type: ADME, organism-based, Sus scrofa
[18] = Tmax in NMRI female mouse at 30 mg/kg, iv by HPLC analysis; type: ADME, organism-based; settings: in vivo
[19] = Tmax in pig urine at 3 mg/kg, iv measured upto 240 mins by LC-MS/MS analysis; type: ADME, organism-based, Sus scrofa
[20] = Tmax in NMRI female mouse at 60 mg/kg, sc by HPLC analysis; type: ADME, organism-based; settings: in vivo
[21] = AUC (0 to infinity) in pig plasma at 3 mg/kg, iv measured upto 240 mins by LC-MS/MS analysis; type: ADME, organism-based, Sus scrofa; settings: in vivo, 4 h
[22] = Tmax in NMRI female mouse at 30 mg/kg, po by HPLC analysis; type: ADME, organism-based; settings: in vivo
[23] = AUC (0 to infinity) in pig plasma at 10 mg/kg, po measured upto 240 mins by LC-MS/MS analysis; type: ADME, organism-based, Sus scrofa; settings: in vivo, 4 h
[24] = Cmax in NMRI female mouse at 30 mg/kg, po by HPLC analysis; type: ADME, organism-based; settings: in vivo
[25] = Half life in pig plasma at 10 mg/kg, po measured upto 240 mins by LC-MS/MS analysis; type: ADME, organism-based, Sus scrofa
[26] = Volume of distribution in NMRI female mouse at 30 mg/kg, iv by HPLC analysis; type: ADME, organism-based; settings: in vivo
[27] = Elimination rate constant in NMRI female mouse at 30 mg/kg, iv by HPLC analysis; type: ADME, organism-based; settings: in vivo
[28] = Cardio-toxicity in human assessed as QT prolongation by measuring increase in mean QTc
[29] = system: Staphylococcus epidermidis; assay: Antibacterial activity against Staphylococcus epidermidis assessed as inhibition of visible growth incubated for 20 to 24 hrs by microbroth serial dilution assay; type: functional, organism-based; settings: time 20-24 hrs
[30] = target: Voltage-gated inwardly rectifying potassium channel KCNH2 (Homo sapiens, UniProt Q12809); assay: Inhibition of K+ ion channel activity of hERG; type: toxicity
Sequence of Voltage-gated inwardly rectifying potassium channel KCNH2 (Q12809 whole entry): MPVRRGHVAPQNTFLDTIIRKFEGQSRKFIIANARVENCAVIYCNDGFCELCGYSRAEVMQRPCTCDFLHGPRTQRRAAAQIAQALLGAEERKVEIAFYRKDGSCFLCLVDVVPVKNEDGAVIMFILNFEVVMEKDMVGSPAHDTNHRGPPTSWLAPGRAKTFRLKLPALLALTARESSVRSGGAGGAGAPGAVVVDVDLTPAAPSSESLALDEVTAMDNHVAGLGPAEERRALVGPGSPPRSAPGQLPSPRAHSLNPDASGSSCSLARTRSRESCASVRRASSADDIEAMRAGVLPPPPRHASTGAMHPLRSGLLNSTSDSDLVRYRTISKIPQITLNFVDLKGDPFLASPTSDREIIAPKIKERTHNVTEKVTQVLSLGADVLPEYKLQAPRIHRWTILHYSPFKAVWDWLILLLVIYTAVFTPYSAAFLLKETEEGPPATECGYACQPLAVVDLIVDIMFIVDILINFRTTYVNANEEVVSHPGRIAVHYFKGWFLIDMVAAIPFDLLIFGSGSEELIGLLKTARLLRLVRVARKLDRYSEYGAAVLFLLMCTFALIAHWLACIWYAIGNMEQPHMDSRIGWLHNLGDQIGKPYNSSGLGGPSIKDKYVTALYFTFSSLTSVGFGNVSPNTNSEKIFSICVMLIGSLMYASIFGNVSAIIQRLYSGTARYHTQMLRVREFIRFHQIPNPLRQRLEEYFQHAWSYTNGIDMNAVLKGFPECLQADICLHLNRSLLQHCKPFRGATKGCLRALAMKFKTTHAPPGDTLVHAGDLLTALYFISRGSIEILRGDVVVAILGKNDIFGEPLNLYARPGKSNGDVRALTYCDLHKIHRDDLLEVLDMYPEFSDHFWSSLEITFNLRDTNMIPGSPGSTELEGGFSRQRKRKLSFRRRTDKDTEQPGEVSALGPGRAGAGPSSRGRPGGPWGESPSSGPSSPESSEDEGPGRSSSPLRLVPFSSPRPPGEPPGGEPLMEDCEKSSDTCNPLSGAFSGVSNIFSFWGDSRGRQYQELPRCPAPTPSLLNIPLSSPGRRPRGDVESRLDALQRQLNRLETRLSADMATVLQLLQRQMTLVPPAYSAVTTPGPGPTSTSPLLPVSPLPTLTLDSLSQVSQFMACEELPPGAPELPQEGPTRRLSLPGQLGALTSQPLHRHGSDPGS

Staphylococcus aureus [31] = assay: (§1) Induction of resistant development in linezolid 5 passages resistance developed Staphylococcus aureus USA300 FPR3757 assessed as fold increase in MIC at sub-MIC concentration measured after 5 passages with conjugate by serial passage assay; type: functional
Staphylococcus aureus [32] = assay: (§2) Induction of resistant development in lefamulin 5 passages resistance developed Staphylococcus aureus USA300 FPR3757 assessed as fold increase in MIC at sub-MIC concentration measured after 28 passages with conjugate by serial passage assay; type: functional
Staphylococcus aureus [33] = assay: as §1, with “in -(6-(6-(Piperazin-1-y1)-9H-purin-9-y)methyl)pyridin-3-y1)-1H-1,2,3-triazol-1-yl)-22-deoxypleuromutilin-16” for “in linezolid 5”, “after 9” for “after 5”; type: functional
Staphylococcus aureus [34] = assay: Induction of resistant development in linezolid 5 passages resistance developed Staphylococcus aureus USA300 FPR3757 assessed as fold increase in MIC at sub-MIC concentration measured after 25 passages with conjugate by serial passage assay; type: functional
Staphylococcus aureus [35] = assay: Induction of resistant development in lefamulin 5 passages resistance developed Staphylococcus aureus USA300 FPR3757 assessed as fold increase in MIC at sub-MIC concentration measured after 13 passages with conjugate by serial passage assay; type: functional
Staphylococcus aureus [36] = assay: Induction of resistant development in linezolid 5 passages resistance developed Staphylococcus aureus USA300 FPR3757 assessed as fold increase in MIC at sub-MIC concentration measured after 28 passages with conjugate by serial passage assay; type: functional
Staphylococcus aureus [37] = assay: Induction of resistant development in lefamulin 5 passages resistance developed Staphylococcus aureus USA300 FPR3757 assessed as fold increase in MIC at sub-MIC concentration measured after 5 passages with conjugate by serial passage assay; type: functional
Staphylococcus aureus [38] = assay: Induction of resistant development in lefamulin 5 passages resistance developed Staphylococcus aureus USA300 FPR3757 assessed as fold increase in MIC at sub-MIC concentration measured after 9 passages with conjugate by serial passage assay; type: functional
Staphylococcus aureus [39] = assay: as §2, with “-(6-(6-(Piperazin-1-y1)-9H-purin-9-y)methyl)pyridin-3-y1)-1H-1,2,3-triazol-1-yl)-22-deoxypleuromutilin-16” for “lefamulin 5”; type: functional
Staphylococcus aureus [40] = assay: Induction of resistant development in lefamulin 5 passages resistance developed Staphylococcus aureus USA300 FPR3757 assessed as fold increase in MIC at sub-MIC concentration measured after 18 passages with conjugate by serial passage assay; type: functional
Staphylococcus aureus [41] = assay: as §1, with “in -(6-(6-(Piperazin-1-y1)-9H-purin-9-y)methyl)pyridin-3-y1)-1H-1,2,3-triazol-1-yl)-22-deoxypleuromutilin-16” for “in linezolid 5”, “after 22” for “after 5”; type: functional
Staphylococcus aureus [42] = assay: Induction of resistant development in linezolid 5 passages resistance developed Staphylococcus aureus USA300 FPR3757 assessed as fold increase in MIC at sub-MIC concentration measured after 18 passages with conjugate by serial passage assay; type: functional

Work on C=C[C@]1(C)C[C@@H](OC(=O)Cn2cc(-c3ccc(Cn4cnc5c(N6CCNCC6)ncnc54)nc3)nn2)[C@]2(C)[C@H](C)CC[C@]3(CCC(=O)[C@H]32)[C@@H](C)[C@@H]1O yielded a Vd [1] of 3.46 L/kg, a Cmax [2] of 18700 ng/mL and a Tmax [3] of 60 min. For the same compound, the half-life [4] was 124 min, the Tmax [5] was 15 min and the k el at 4 h [6] was 0.000155 s⁻¹. The concentration at 4 h [7] was 866 ng/mL, the AUC [8] was 428 µg/mL/min and the AUC [9] was 22.5 µg/mL/min. For the same compound, the half-life [10] was 52.8 min, the CL/F [11] was 140 mL/min/kg and the k el [12] was 9.33e-05 s⁻¹. The Vd [13] was 17.1 L/kg, the half-life [14] was 75 min and the k el at 4 h [15] was 0.000418 s⁻¹. It also gave a k el [16] of 0.000102 s⁻¹, a Tmax [17] of 0 h and a Tmax [18] of 0 h. The Tmax [19] was 60 min, the Tmax [20] was 15 min and the AUC [21] was 35.5 µg/mL/min. It also gave a Tmax [22] of 15 min, an AUC [23] of 7.1 µg/mL/min and a Cmax [24] of 8.2 ng/mL. It also gave a half-life [25] of 22.2 min, a Vd [26] of 3.5 L/kg and a k el [27] of 0.000218 s⁻¹.

With C=C[C@]1(C)C[C@@H](OC(=O)CS[C@@H]2CC[C@@H](N)C[C@H]2O)[C@]2(C)[C@H](C)CC[C@]3(CCC(=O)[C@H]32)[C@@H](C)[C@@H]1O [LEFAMULIN] the QTc increase [28] was 10 ms, the Activity [29] was “inactive” and the IC50 [30] was 78.2 µM. For the same compound, the fold change (FC) (Staphylococcus aureus [31]) was 4, the fold change (FC) (Staphylococcus aureus [32]) was 128 and the fold change (FC) (Staphylococcus aureus [33]) was 8. The fold change (FC) (Staphylococcus aureus [34]) was 32, the fold change (FC) (Staphylococcus aureus [35]) was 32 and the fold change (FC) (Staphylococcus aureus [36]) was 32. The fold change (FC) (Staphylococcus aureus [37]) was 4, the fold change (FC) (Staphylococcus aureus [38]) was 16 and the fold change (FC) (Staphylococcus aureus [39]) was 128. The fold change (FC) (Staphylococcus aureus [40]) was 32, the fold change (FC) (Staphylococcus aureus [41]) was 32 and the fold change (FC) (Staphylococcus aureus [42]) was 16.
